Assay results published in patent US7456167B2, “Cyclopropyl fused indolobenzazepine HCV NS5B inhibitors” (Bristol-Myers Squibb Company, priority 2006, dated 2008).
Like-named read-outs stand apart in the source and are kept apart here.

How the values were obtained:
[1] = biological target: T1, HCV NS5B RdRp genotype 1b (Hepatitis C virus genotype 1b, UniProt Q9WMX2); test: Modified HCV NS5B RdRp enzyme assay (preincubation protocol); assay type: biochemical
T1 construct: The protein was expressed with an 18 amino acid C-terminal truncation to enhance the solubility; made in house; host or cells: E. coli BL21(DE3)
T1 sequence (Q9WMX2 2420-2992): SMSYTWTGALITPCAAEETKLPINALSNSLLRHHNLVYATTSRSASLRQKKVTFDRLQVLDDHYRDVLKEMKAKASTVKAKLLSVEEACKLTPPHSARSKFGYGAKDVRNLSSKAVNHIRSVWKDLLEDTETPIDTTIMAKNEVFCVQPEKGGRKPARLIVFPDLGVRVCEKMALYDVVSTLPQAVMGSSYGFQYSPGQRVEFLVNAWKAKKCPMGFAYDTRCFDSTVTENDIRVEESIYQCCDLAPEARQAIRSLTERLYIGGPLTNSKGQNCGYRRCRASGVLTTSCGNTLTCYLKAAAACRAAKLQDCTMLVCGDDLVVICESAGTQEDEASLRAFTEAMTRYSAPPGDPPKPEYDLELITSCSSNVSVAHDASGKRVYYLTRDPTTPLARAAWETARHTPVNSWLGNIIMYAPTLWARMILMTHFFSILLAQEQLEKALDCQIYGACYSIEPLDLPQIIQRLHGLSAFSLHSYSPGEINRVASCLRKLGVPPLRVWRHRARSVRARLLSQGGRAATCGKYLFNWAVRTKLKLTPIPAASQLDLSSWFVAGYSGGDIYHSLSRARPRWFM
Protocol: HCV NS5B RdRp cloning, expression, and purification. The cDNA encoding the NS5B protein of HCV, genotype 1b, was cloned into the pET21a expression vector. The protein was expressed with an 18 amino acid C-terminal truncation to enhance the solubility. The E. coli competent cell line BL21(DE3) was used for expression of the protein. Cultures were grown at 37° C. for ˜4 hours until the cultures reached an optical density of 2.0 at 600 nm. The cultures were cooled to 20° C. and induced with 1 mM IPTG. Fresh ampicillin was added to a final concentration of 50 μg/ml and the cells were grown overnight at 20° C.
Cell pellets (3 L) were lysed for purification to yield 15-24 mgs of purified NS5B. The lysis buffer consisted of 20 mM Tris-HCl, pH 7.4, 500 mM NaCl, 0.5% triton X-100, 1 mM DTT, 1 mM EDTA, 20% glycerol, 0.5 mg/ml lysozyme, 10 mM MgCl2, 15 ug/ml deoxyribonuclease I, and Complete TM protease inhibitor tablets (Roche). After addition of the lysis buffer, frozen cell pellets were resuspended using a tissue homogenizer. To reduce the viscosity of the sample, aliquots of the lysate were sonicated on ice using a microtip attached to a Branson sonicator. The sonicated lysate was centrifuged at 100,000×g for 1 hr at 4° C. and filtered through a 0.2 μm filter unit (Corning).
The protein was purified using three sequential chromatography steps: Heparin sepharose CL-6B, polyU sepharose 4B, and Hitrap SP sepharose (Pharmacia). The chromatography buffers were identical to the lysis buffer but contained no lysozyme, deoxyribonuclease I, MgCl2 or protease inhibitor and the NaCl concentration of the buffer was adjusted according to the requirements for charging the protein onto the column. Each column was eluted with a NaCl gradient which varied in length from 5-50 column volumes depending on the column type. After the final chromatography step, the resulting purity of the enzyme is >90% based on SDS-PAGE analysis. The enzyme was aliquoted and stored at −80° C.
Standard HCV NS5B RdRp enzyme assay. HCV RdRp genotype 1b assays were run in a final volume of 60 μl in 96 well plates (Costar 3912). The assay buffer is composed of 20 mM Hepes, pH 7.5, 2.5 mM KCl, 2.5 mM MgCl2, 1 mM DTT, 1.6 U RNAse inhibitor (Promega N2515), 0.1 mg/ml BSA (Promega R3961), and 2% glycerol. All compounds were serially diluted (3-fold) in DMSO and diluted further in water such that the final concentration of DMSO in the assay was 2%. HCV RdRp genotype 1b enzyme was used at a final concentration of 28 nM. A polyA template was used at 6 nM, and a biotinylated oligo-dT12 primer was used at 180 nM final concentration. Template was obtained commercially (Amersham 27-4110). Biotinylated primer was prepared by Sigma Genosys. 3H-UTP was used at 0.6 μCi (0.29 μM total UTP). Reactions were initiated by the addition of enzyme, incubated at 30° C. for 60 min, and stopped by adding 25 μl of 50 mM EDTA containing SPA beads (4 μg/μl, Amersham RPNQ 0007). Plates were read on a Packard Top Count NXT after >1 hr incubation at room temperature.
Modified HCV NS5B RdRp enzyme assay. A modified enzyme assay was performed essentially as described for the standard enzyme assay except for the following: The biotinylated oligo dT12 primer was precaptured on streptavidin-coated SPA beads by mixing primer and beads in assay buffer and incubating at room temperature for one hour. Unbound primer was removed after centrifugation. The primer-bound beads were resuspended in 20 mM Hepes buffer, pH 7.5 and used in the assay at final concentrations of 20 nM primer and 0.67 μg/μl beads. Order of addition in the assay: enzyme (14 nM) was added to diluted compound followed by the addition of a mixture of template (0.2 nM), 3H-UTP (0.6 μCi, 0.29 μM), and primer-bound beads, to initiate the reaction; concentrations given are final. Reactions were allowed to proceed for 4 hours at 30° C.
IC50 values for compounds were determined using seven different [I]. […]

HCV replicon cells = test: HCV replicon FRET assay; assay type: cell-based
From the text: FRET Assay Preparation. To perform the HCV FRET screening assay, 96-well cell culture plates were used. The FRET peptide (Anaspec, Inc.) (Taliani et al., Anal. Biochem. 1996, 240, 60-67) contains a fluorescence donor, EDANS, near one end of the peptide and an acceptor, DABCYL, near the other end. The fluorescence of the peptide is quenched by […] resonance energy transfer (RET) between the donor and the acceptor, but as the NS3 protease cleaves the peptide the products are released from RET quenching and the fluorescence of the donor becomes apparent. The assay reagent was made as follows: 5× cell Luciferase cell culture lysis reagent from Promega (#E153A) diluted to 1× with dH2O, NaCl added to 150 mM final, the FRET peptide diluted to 20 uM final from a 2 mM stock.
To prepare plates, HCV replicon cells, with or without a Renilla luciferase reporter gene, were trypsinized and placed into each well of a 96-well plate with titrated test compounds added in columns 3 through 12; columns 1 and 2 contained a control compound (HCV protease inhibitor), and the bottom row contained cells without compound. The plates were then placed in a CO2 incubator at 37° C.
Assays. Subsequent to addition of the test compounds described above (FRET Assay Preparation), at various times the plate was removed and Alamar blue solution (Trek Diagnostics, #00-100) was added per well as a measure of cellular toxicity. After reading in a Cytoflour 4000 instrument (PE Biosystems), plates were rinsed with PBS and then used for FRET assay by the addition of 30 ul of the FRET peptide assay reagent described above (FRET Assay Preparation) per well. The plate was then placed into the Cytoflour 4000 instrument which had been set to 340 excite/490 emission, automatic mode for 20 cycles and the plate read in a kinetic mode. Typically, the signal to noise using an endpoint analysis after the reads was at least three-fold. Alternatively, after Alamar blue reading, plates were rinsed with PBS, 50 ul of DMEM (high glucose) without phenol red was added and plates were then used for luciferase assay using the Promega Dual-Glo Luciferase Assay System.
Compound analysis was determined by quantification of the relative HCV replicon inhibition and the relative cytotoxicity values. To calculate cytoxicity values, the average Alamar Blue fluorescence signals from the control wells were set as 100% non-toxic. The individual signals in each of the compound test wells were then divided by the average control signal and multiplied by 100% to determine […]. To calculate the HCV replicon inhibition values, an average background value was obtained from the two wells containing the highest amount of HCV protease inhibitor at the end of the assay period. These numbers were similar to those obtained from naïve Huh-7 cells.
The background numbers were then subtracted from the average signal obtained from the control wells and this number was used as 100% activity. The individual signals in each of the compound test wells were then divided by the averaged control values after background subtraction and multiplied by 100% to determine percent activity. EC50 values for a protease inhibitor titration were calculated as the concentration which caused a 50% reduction in FRET or luciferase activity. The two numbers generated for the compound plate, percent cytoxicity and percent activity were used to determine compounds of interest for further analysis.

[2] = HCV NS5B RdRp genotype 1b, preincubation protocol, read-out: IC50
[3] = Hepatitis C virus, HCV replicon cells, FRET assay, read-out: EC50

Row | Compound | IC50 [1, 2] [µM] | EC50 (HCV replicon cells; [3]) [µM] | EC50 (HCV replicon cells; HCV replicon cells, FRET assay, read-out: EC50) [µM] | IC50 [1] [µM] | EC50 (HCV replicon cells; Hepatitis C virus) [µM]
1 | COc1ccc2c(c1)C1CC1(S(=O)(=O)N1CCN3CCC1CC3)Cn1c-2c(C2CCCCC2)c2ccc(C(=O)NS(=O)(=O)N(C)C)cc21 (stereo not shown) | 0.02 to 1 | 0.02 to 1 | – | – | –
2 | COc1ccc2c(c1)C=C(S(=O)(=O)N1CCN(C)CC1)Cn1c-2c(C2CCCCC2)c2ccc(C(=O)NS(=O)(=O)N(C)C)cc21 | 0.02 to 1 | 0.02 to 1 | – | – | –
3 | COc1ccc2c(c1)C1CC1(S(=O)(=O)N1C3CC1CN(C)C3)Cn1c-2c(C2CCCCC2)c2ccc(C(=O)NS(=O)(=O)C3CC3)cc21 (stereo not shown) | 0.02 to 1 | 0.02 to 1 | – | – | –
4 | COc1ccc2c(c1)C=C(S(=O)(=O)N1CCOCC1)Cn1c-2c(C2CCCCC2)c2ccc(C(=O)NS(=O)(=O)N(C)C)cc21 | 0.02 to 1 | 0.02 to 1 | – | – | –
5 | COC(=O)c1ccc2c(C3CCCCC3)c3n(c2c1)CC1(S(=O)(=O)O)CC1c1cc(OC)ccc1-3 (stereo not shown) | 0.07 to 1 | > 1 | – | – | –
6 | COc1ccc2c(c1)C1CC1(S(=O)(=O)N1CCC1)Cn1c-2c(C2CCCCC2)c2ccc(C(=O)NS(=O)(=O)C(C)C)cc21 (stereo not shown) | 0.02 to 1 | 0.02 to 1 | – | – | –
7 | COc1ccc2c(c1)C1CC1(S(=O)(=O)N1CCN3CCCC3C1)Cn1c-2c(C2CCCCC2)c2ccc(C(=O)NS(=O)(=O)N3CCOCC3)cc21 (stereo not shown) [drawing 65] | 0.02 to 1 | – | 0.02 to 1 | – | –
8 | COc1ccc2c(c1)C1CC1(S(=O)(=O)N1C3CCC1CC(C)(O)C3)Cn1c-2c(C2CCCCC2)c2ccc(C(=O)NS(=O)(=O)C(C)C)cc21 (stereo not shown) | – | – | – | 0.02 to 1 | 0.02 to 1
9 | COc1ccc2c(c1)C1CC1(S(=O)(=O)N1CCN3CCC1CC3)Cn1c-2c(C2CCCCC2)c2ccc(C(=O)NS(=O)(=O)N3CCOCC3)cc21 (stereo not shown) | 0.02 to 1 | 0.02 to 1 | – | – | –
10 | COc1ccc2c(c1)C1CC1(S(=O)(=O)N(C)CC(=O)N1CCOCC1)Cn1c-2c(C2CCCCC2)c2ccc(C(=O)O)cc21 (stereo not shown) | 0.02 to 1 | 0.02 to 1 | – | – | –
11 | COc1ccc2c(c1)C1CC1(S(=O)(=O)N1C[C@@H](C)N(C)[C@@H](C)C1)Cn1c-2c(C2CCCCC2)c2ccc(C(=O)NS(=O)(=O)N3CCCC3)cc21 (stereo partly shown) | 0.02 to 1 | 0.02 to 1 | – | – | –
12 | COc1ccc2c(c1)C1CC1(S(=O)(=O)N1CCN(S(C)(=O)=O)CC1)Cn1c-2c(C2CCCCC2)c2ccc(C(=O)NS(=O)(=O)N(C)C)cc21 (stereo not shown) | 0.02 to 1 | 0.02 to 1 | – | – | –
13 | COc1ccc2c(c1)C1CC1(S(=O)(=O)N1CC(O)C1)Cn1c-2c(C2CCCCC2)c2ccc(C(=O)O)cc21 (stereo not shown) | 0.02 to 1 | 0.02 to 1 | – | – | –
14 | COc1ccc2c(c1)C1CC1(S(=O)(=O)N1C3CC1CN(C)C3)Cn1c-2c(C2CCCCC2)c2ccc(C(=O)NS(=O)(=O)N3CCOCC3)cc21 (stereo not shown) | 0.02 to 1 | 0.02 to 1 | – | – | –
